Test results published in ChEMBL document CHEMBL5465560, “Selectivity Literature for EUbOPEN Chemogenomic Library” (2024).

Key:
[1] = molecular target: Leukocyte tyrosine kinase receptor (Homo sapiens, UniProt P29376); assay: Selectivity interaction (Kinase panel (radiometric inhibition assay)) EUB0000651a LTK
[2] = molecular target: T1, cAMP-dependent protein kinase catalytic subunit alpha (Homo sapiens, UniProt P17612); assay: Selectivity interaction (Kinase panel (radiometric inhibition assay)) EUB0000651a PRKACA
[3] = molecular target: T2, Tyrosine-protein kinase SYK (Homo sapiens, UniProt P43405); assay: Selectivity interaction (Kinase panel (radiometric inhibition assay)) EUB0000651a SYK
[4] = molecular target: T3, Calcium/calmodulin-dependent protein kinase type II subunit alpha (Homo sapiens, UniProt Q9UQM7); assay: Selectivity interaction (Kinase panel (radiometric inhibition assay)) EUB0000651a CAMK2A
T3 sequence (Q9UQM7 whole entry): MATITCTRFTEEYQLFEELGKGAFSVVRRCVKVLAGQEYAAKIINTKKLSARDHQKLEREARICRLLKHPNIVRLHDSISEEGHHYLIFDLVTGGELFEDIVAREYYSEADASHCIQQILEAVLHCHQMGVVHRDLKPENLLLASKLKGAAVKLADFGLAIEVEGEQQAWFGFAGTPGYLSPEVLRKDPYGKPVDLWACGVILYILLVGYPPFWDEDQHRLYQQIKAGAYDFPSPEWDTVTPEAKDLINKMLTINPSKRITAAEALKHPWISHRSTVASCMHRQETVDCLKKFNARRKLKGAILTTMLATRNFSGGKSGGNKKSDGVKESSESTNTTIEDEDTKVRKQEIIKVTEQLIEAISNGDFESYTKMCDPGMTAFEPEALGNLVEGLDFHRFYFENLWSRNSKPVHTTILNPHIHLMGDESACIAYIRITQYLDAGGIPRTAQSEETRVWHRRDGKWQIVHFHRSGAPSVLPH

[5] = molecular target: Protein kinase C alpha type (Homo sapiens, UniProt P17252); assay: Selectivity interaction (Kinase panel (radiometric inhibition assay)) EUB0000651a PRKCA
[6] = Selectivity interaction (Kinase panel (cellular selectivity, Bright-Glo proliferation assay in BaF3 Cell line, Promega)) EUB0000678a TEK
[7] = Selectivity interaction (Kinase panel (cellular selectivity, Bright-Glo proliferation assay in BaF3 Cell line, Promega)) EUB0000678a TYK2
[8] = molecular target: Tyrosine-protein kinase JAK1 (Homo sapiens, UniProt P23458); assay: Selectivity interaction (Kinase panel (Enzymatic assay, microfluidic mobility shift readout, Caliper lifesciences, conc. ATP = Km for each kinase)) EUB0000678a JAK1
[9] = Selectivity interaction (Kinase panel (cellular selectivity, Bright-Glo proliferation assay in BaF3 Cell line, Promega)) EUB0000678a KDR
[10] = molecular target: T3, Calcium/calmodulin-dependent protein kinase type II subunit alpha; assay: Selectivity interaction (Kinase panel (Enzymatic assay, microfluidic mobility shift readout, Caliper lifesciences, conc. ATP = Km for each kinase)) EUB0000678a CAMK2A
[11] = Selectivity interaction (Kinase panel (cellular selectivity, Bright-Glo proliferation assay in BaF3 Cell line, Promega)) EUB0000678a ROS1
[12] = Selectivity interaction (Kinase panel (cellular selectivity, Bright-Glo proliferation assay in BaF3 Cell line, Promega)) EUB0000678a ALK
[13] = molecular target: Hepatocyte growth factor receptor (Homo sapiens, UniProt P08581); assay: Selectivity interaction (Kinase panel (Enzymatic assay, microfluidic mobility shift readout, Caliper lifesciences, conc. ATP = Km for each kinase)) EUB0000678a MET
[14] = Selectivity interaction (Kinase panel (cellular selectivity, Bright-Glo proliferation assay in BaF3 Cell line, Promega)) EUB0000678a KDR; remark: listed apart in the source
[15] = molecular target: Cyclin-dependent kinase 2 (Homo sapiens, UniProt P24941); assay: Selectivity interaction (Kinase panel (Enzymatic assay, microfluidic mobility shift readout, Caliper lifesciences, conc. ATP = Km for each kinase)) EUB0000678a CDK2
[16] = Selectivity interaction (Kinase panel (cellular selectivity, Bright-Glo proliferation assay in BaF3 Cell line, Promega)) EUB0000678a LYN
[17] = Selectivity interaction (Kinase panel (cellular selectivity, Bright-Glo proliferation assay in BaF3 Cell line, Promega)) EUB0000678a JAK2
[18] = Selectivity interaction (Kinase panel (cellular selectivity, Bright-Glo proliferation assay in BaF3 Cell line, Promega)) EUB0000678a BMX
[19] = molecular target: Serine/threonine-protein kinase mTOR (Homo sapiens, UniProt P42345); assay: Selectivity interaction (Kinase panel (KinaseGlo Luminescent Kinase Assay, Promega)) EUB0000678a MTOR
[20] = molecular target: T1, cAMP-dependent protein kinase catalytic subunit alpha; assay: Selectivity interaction (Kinase panel (Enzymatic assay, microfluidic mobility shift readout, Caliper lifesciences, conc. ATP = Km for each kinase)) EUB0000678a PRKACA
[21] = molecular target: Non-receptor tyrosine-protein kinase TYK2 (Homo sapiens, UniProt P29597); assay: Selectivity interaction (Kinase panel (Enzymatic assay, microfluidic mobility shift readout, Caliper lifesciences, conc. ATP = Km for each kinase)) EUB0000678a TYK2
[22] = molecular target: Ribosomal protein S6 kinase alpha-1 (Homo sapiens, UniProt Q15418); assay: Selectivity interaction (Kinase panel (Enzymatic assay, microfluidic mobility shift readout, Caliper lifesciences, conc. ATP = Km for each kinase)) EUB0000678a RPS6KA1
[23] = molecular target: Tyrosine-protein kinase JAK2 (Homo sapiens, UniProt O60674); assay: Selectivity interaction (Kinase panel (Enzymatic assay, microfluidic mobility shift readout, Caliper lifesciences, conc. ATP = Km for each kinase)) EUB0000678a JAK2
[24] = Selectivity interaction (Kinase panel (cellular selectivity, Bright-Glo proliferation assay in BaF3 Cell line, Promega)) EUB0000678a NTRK2
[25] = Selectivity interaction (Kinase panel (cellular selectivity, Bright-Glo proliferation assay in BaF3 Cell line, Promega)) EUB0000678a SYK
[26] = molecular target: Mitogen-activated protein kinase 14 (Homo sapiens, UniProt Q16539); assay: Selectivity interaction (Kinase panel (Enzymatic assay, microfluidic mobility shift readout, Caliper lifesciences, conc. ATP = Km for each kinase)) EUB0000678a MAPK14
[27] = molecular target: Phosphatidylinositol 3-kinase catalytic subunit type 3 (Homo sapiens, UniProt Q8NEB9); assay: Selectivity interaction (Kinase panel (KinaseGlo Luminescent Kinase Assay, Promega)) EUB0000678a PIK3C3
[28] = Selectivity interaction (Kinase panel (cellular selectivity, Bright-Glo proliferation assay in BaF3 Cell line, Promega)) EUB0000678a RET
[29] = Selectivity interaction (Kinase panel (cellular selectivity, Bright-Glo proliferation assay in BaF3 Cell line, Promega)) EUB0000678a FLT1
[30] = Selectivity interaction (Kinase panel (cellular selectivity, Bright-Glo proliferation assay in BaF3 Cell line, Promega)) EUB0000678a MET
[31] = molecular target: T2, Tyrosine-protein kinase SYK; assay: Selectivity interaction (Kinase panel (Enzymatic assay, microfluidic mobility shift readout, Caliper lifesciences, conc. ATP = Km for each kinase)) EUB0000678a SYK
[32] = Selectivity interaction (Kinase panel (cellular selectivity, Bright-Glo proliferation assay in BaF3 Cell line, Promega)) EUB0000678a EPHB1
[33] = Selectivity interaction (Kinase panel (cellular selectivity, Bright-Glo proliferation assay in BaF3 Cell line, Promega)) EUB0000678a INSR
[34] = molecular target: T4, Interleukin-1 receptor-associated kinase 4 (Homo sapiens, UniProt Q9NWZ3); assay: Selectivity interaction (Kinase panel (Enzymatic assay, microfluidic mobility shift readout, Caliper lifesciences, conc. ATP = Km for each kinase)) EUB0000678a IRAK4
T4 sequence (Q9NWZ3 whole entry): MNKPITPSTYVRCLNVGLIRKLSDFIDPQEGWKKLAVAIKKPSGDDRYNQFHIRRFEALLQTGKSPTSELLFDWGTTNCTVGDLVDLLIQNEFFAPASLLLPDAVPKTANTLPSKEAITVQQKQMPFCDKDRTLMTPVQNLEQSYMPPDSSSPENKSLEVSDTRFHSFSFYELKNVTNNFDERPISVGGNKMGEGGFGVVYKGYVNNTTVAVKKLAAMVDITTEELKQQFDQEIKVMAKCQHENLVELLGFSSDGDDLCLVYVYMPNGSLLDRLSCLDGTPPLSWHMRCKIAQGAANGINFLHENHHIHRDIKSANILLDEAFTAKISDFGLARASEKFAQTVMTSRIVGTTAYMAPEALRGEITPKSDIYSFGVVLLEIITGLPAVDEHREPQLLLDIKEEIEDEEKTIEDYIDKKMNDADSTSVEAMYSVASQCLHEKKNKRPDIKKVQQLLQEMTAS

[35] = Selectivity interaction (Kinase panel (cellular selectivity, Bright-Glo proliferation assay in BaF3 Cell line, Promega)) EUB0000678a SRC
[36] = Selectivity interaction (Kinase panel (cellular selectivity, Bright-Glo proliferation assay in BaF3 Cell line, Promega)) EUB0000678a FLT4
[37] = molecular target: Dual specificity tyrosine-phosphorylation-regulated kinase 1B (Homo sapiens, UniProt Q9Y463); assay: Selectivity interaction (Radioactive assay (Reaction Biology)) EUB0001046a DYRK1B
Dual specificity tyrosine-phosphorylation-regulated kinase 1B, sequence (Q9Y463 whole entry): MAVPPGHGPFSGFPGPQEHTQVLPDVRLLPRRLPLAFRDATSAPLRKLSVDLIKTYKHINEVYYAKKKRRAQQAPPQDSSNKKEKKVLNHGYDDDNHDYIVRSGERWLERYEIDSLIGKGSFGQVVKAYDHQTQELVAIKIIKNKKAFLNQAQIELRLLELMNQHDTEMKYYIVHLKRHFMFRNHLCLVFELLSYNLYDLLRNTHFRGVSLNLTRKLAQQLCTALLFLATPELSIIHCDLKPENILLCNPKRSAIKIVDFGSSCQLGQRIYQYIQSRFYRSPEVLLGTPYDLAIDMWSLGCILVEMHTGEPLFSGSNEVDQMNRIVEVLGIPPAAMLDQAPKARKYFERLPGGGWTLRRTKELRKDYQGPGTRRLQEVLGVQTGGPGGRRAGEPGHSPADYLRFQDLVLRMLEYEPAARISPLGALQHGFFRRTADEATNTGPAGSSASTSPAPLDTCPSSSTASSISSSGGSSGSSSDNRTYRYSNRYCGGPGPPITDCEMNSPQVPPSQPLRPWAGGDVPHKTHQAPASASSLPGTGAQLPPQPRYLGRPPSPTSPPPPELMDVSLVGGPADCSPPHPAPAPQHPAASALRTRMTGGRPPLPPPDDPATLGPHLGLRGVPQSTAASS

[38] = molecular target: T5, Dual specificity tyrosine-phosphorylation-regulated kinase 3 (Homo sapiens, UniProt O43781); assay: Selectivity interaction (Radioactive assay (Reaction Biology)) EUB0001046a DYRK3
T5 sequence (O43781 whole entry): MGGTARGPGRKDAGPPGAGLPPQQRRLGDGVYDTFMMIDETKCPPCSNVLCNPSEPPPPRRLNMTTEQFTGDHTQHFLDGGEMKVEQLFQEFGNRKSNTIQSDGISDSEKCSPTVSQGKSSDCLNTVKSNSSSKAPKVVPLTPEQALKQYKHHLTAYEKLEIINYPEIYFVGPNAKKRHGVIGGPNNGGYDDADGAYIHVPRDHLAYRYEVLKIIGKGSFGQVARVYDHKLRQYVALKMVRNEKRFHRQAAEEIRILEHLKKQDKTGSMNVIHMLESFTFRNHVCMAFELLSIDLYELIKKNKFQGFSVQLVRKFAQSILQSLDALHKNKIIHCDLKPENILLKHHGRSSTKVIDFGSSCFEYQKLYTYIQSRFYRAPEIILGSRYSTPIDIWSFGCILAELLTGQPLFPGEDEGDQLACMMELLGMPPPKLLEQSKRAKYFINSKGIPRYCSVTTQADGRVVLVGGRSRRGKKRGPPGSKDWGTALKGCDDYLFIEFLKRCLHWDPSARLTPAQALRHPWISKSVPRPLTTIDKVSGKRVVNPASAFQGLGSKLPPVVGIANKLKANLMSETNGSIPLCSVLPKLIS

SRSF protein kinase 1 [39] = molecular target: T6, SRSF protein kinase 1 (Homo sapiens, UniProt Q96SB4)
T6 sequence (Q96SB4 whole entry): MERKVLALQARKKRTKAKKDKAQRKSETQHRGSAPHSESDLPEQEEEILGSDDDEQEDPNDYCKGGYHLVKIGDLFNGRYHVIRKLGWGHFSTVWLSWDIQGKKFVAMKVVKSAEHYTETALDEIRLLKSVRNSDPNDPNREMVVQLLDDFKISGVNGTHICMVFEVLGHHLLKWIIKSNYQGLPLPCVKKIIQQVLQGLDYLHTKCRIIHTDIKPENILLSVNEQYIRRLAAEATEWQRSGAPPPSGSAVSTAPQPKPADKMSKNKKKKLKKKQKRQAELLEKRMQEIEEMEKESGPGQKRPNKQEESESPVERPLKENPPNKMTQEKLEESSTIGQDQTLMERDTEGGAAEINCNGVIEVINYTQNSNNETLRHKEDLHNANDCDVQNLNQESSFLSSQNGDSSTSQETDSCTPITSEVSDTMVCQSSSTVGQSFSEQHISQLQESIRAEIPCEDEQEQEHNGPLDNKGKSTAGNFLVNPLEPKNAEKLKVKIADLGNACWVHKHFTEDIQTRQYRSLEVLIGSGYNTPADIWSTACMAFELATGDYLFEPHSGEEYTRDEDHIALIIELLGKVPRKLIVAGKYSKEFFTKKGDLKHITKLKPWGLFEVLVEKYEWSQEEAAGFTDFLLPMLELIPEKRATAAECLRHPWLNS

SRSF protein kinase 1 [40] = molecular target: T6, SRSF protein kinase 1; remark: listed apart in the source
[41] = molecular target: Dual specificity protein kinase CLK1 (Homo sapiens, UniProt P49759); assay: Selectivity interaction (Radioactive assay (Reaction Biology)) EUB0001046a CLK1
Dual specificity protein kinase CLK1, sequence (P49759 whole entry): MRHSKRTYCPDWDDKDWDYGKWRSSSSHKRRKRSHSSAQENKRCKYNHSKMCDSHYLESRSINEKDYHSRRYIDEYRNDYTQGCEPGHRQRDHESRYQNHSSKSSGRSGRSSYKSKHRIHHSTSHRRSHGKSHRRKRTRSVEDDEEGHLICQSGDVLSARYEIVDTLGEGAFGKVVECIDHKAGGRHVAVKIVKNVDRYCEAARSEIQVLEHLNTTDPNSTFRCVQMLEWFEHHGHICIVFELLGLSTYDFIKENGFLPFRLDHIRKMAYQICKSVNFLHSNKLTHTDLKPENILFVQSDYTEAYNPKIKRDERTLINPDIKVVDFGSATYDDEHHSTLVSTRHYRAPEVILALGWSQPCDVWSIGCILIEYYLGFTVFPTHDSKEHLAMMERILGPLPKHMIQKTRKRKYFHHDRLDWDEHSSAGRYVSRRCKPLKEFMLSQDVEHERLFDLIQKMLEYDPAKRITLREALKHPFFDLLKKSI

[42] = molecular target: T7, Dual specificity tyrosine-phosphorylation-regulated kinase 2 (Homo sapiens, UniProt Q92630); assay: Selectivity interaction (Radioactive assay (Reaction Biology)) EUB0001046a DYRK2
T7 sequence (Q92630 whole entry): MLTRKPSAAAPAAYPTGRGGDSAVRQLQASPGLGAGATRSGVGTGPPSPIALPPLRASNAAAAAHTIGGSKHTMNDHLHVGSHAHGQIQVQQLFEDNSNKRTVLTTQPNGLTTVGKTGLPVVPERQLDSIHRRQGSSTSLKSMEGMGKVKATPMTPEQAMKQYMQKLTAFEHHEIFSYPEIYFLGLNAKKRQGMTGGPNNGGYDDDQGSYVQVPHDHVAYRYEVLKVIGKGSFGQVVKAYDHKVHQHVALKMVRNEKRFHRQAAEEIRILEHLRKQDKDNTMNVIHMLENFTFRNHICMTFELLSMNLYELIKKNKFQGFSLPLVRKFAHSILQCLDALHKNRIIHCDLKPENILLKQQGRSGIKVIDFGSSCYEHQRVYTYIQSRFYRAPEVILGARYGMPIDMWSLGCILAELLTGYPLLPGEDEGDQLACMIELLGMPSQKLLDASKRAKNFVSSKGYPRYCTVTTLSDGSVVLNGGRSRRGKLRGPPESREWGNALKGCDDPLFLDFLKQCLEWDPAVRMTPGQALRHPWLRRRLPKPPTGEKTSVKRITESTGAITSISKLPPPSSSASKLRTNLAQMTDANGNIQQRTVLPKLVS

[43] = molecular target: Dual specificity tyrosine-phosphorylation-regulated kinase 1A (Homo sapiens, UniProt Q13627); assay: Selectivity interaction (Radioactive assay (Reaction Biology)) EUB0001046a DYRK1A
[44] = molecular target: Dual specificity protein kinase CLK2 (Homo sapiens, UniProt P49760); assay: Selectivity interaction (Radioactive assay (Reaction Biology)) EUB0001046a CLK2
[45] = molecular target: Dual specificity protein kinase CLK3 (Homo sapiens, UniProt P49761); assay: Selectivity interaction (Radioactive assay (Reaction Biology)) EUB0001046a CLK3
Dual specificity protein kinase CLK3, sequence (P49761 whole entry): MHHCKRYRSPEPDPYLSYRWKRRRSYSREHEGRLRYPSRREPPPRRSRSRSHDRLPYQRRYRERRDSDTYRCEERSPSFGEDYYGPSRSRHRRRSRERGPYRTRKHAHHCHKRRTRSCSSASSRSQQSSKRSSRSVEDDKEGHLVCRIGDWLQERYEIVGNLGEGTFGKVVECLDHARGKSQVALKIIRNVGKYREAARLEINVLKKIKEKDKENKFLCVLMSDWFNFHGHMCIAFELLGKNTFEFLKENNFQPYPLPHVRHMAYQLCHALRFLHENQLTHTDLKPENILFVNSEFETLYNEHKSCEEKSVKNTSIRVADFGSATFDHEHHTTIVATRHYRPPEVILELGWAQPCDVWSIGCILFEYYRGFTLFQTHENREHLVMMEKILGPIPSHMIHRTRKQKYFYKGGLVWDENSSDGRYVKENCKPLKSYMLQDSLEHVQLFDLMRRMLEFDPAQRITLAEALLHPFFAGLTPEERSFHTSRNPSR

[46] = molecular target: SRSF protein kinase 2 (Homo sapiens) (UniProt P78362)
[47] = molecular target: Dual specificity protein kinase CLK4 (Homo sapiens, UniProt Q9HAZ1); assay: Selectivity interaction (Radioactive assay (Reaction Biology)) EUB0001046a CLK4
Dual specificity protein kinase CLK4, sequence (Q9HAZ1 whole entry): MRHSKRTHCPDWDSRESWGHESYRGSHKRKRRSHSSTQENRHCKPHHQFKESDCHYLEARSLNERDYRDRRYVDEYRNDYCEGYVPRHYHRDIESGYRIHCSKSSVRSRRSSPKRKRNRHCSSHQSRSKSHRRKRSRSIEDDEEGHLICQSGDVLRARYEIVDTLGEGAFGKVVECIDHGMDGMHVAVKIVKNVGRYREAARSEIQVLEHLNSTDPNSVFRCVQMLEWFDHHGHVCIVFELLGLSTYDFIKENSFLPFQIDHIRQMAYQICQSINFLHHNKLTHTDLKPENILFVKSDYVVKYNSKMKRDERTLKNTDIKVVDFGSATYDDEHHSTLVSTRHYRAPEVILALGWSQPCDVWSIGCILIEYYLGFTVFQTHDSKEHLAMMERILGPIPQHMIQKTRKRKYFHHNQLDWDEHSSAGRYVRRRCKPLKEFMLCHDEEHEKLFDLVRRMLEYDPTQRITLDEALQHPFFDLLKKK

Leukocyte tyrosine kinase receptor, sequence (P29376 whole entry): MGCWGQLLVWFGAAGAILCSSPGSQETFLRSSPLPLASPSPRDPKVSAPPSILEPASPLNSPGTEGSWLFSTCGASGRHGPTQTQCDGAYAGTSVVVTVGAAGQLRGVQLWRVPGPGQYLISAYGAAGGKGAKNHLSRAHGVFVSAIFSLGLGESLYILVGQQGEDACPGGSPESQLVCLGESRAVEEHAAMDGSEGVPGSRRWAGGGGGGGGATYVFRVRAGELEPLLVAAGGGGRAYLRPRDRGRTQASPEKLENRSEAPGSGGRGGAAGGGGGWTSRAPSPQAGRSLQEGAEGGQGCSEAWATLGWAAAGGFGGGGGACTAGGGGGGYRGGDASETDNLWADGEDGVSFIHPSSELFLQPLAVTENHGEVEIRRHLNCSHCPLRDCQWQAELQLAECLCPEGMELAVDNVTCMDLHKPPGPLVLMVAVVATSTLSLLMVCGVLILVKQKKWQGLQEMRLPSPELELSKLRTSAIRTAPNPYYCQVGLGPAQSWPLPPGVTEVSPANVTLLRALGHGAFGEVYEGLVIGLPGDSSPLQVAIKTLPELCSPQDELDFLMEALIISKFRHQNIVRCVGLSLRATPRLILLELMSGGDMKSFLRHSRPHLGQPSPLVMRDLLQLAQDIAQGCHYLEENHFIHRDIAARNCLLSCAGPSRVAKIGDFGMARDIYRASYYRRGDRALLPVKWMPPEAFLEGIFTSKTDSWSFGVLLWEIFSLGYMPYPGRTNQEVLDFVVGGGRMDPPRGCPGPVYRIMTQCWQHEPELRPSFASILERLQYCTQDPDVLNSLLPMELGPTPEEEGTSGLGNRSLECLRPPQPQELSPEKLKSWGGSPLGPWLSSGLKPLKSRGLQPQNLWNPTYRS

COc1cc(C)c(Sc2cnc(NC(=O)c3ccc(CNC(C)C(C)(C)C)cc3)s2)cc1C(=O)N1CCN(C(C)=O)CC1 (configuration not stated)
IC50 [1]: 2400 nM
IC50 [2]: > 50 µM
IC50 [3]: > 50 µM
IC50 [4]: 33.5 µM
IC50 [5]: 24 µM

CCN1CCN(c2ccc(Nc3cc(N(C)C(=O)Nc4c(Cl)c(OC)cc(OC)c4Cl)ncn3)cc2)CC1 [INFIGRATINIB]
IC50 [6]: 2050 nM
IC50 [7]: 3.3 µM
IC50 [8]: > 10 µM
IC50 [9]: 938 nM
IC50 [10]: > 10 µM
IC50 [11]: 3.26 µM
IC50 [12]: 3.08 µM
IC50 [13]: > 10 µM
IC50 [14]: 1450 nM
IC50 [15]: > 10 µM
IC50 [16]: 3.02 µM
IC50 [17]: 2880 nM
IC50 [18]: 3.41 µM
IC50 [19]: > 9 µM
IC50 [20]: > 10 µM
IC50 [21]: > 10 µM
IC50 [22]: > 10 µM
IC50 [23]: > 10 µM
IC50 [24]: 3.14 µM
IC50 [25]: 5.36 µM
IC50 [26]: > 10 µM
IC50 [27]: > 9 µM
IC50 [28]: 3.35 µM
IC50 [29]: 1510 nM
IC50 [30]: 3.01 µM
IC50 [31]: > 10 µM
IC50 [32]: 3.04 µM
IC50 [33]: 3.37 µM
IC50 [34]: > 10 µM
IC50 [35]: 2970 nM
IC50 [36]: 2070 nM

CN(c1ncccc1CNc1ccnc(-c2cc3cc(Cl)ccc3[nH]2)n1)S(C)(=O)=O
IC50 [37]: > 10 µM
IC50 [38]: > 10 µM
dTM (SRSF protein kinase 1 [39]): 0.5 K
IC50 (SRSF protein kinase 1 [40]): > 50 µM
IC50 [41]: > 10 µM
IC50 [42]: > 10 µM
IC50 [43]: > 10 µM
IC50 [44]: > 10 µM
IC50 [45]: > 10 µM
dTM [46]: 0.3 K
IC50 [47]: > 10 µM
